Data published in the supplement of paper PMC13380429.

Experiments:
[1] = system: A549-ACE2 infected with SARS-CoV-2; test: cell count relative to DMSO; higher = less toxic; settings: 24 h
[2] = system: A549-ACE2; test: drug-induced phospholipidosis relative to tamoxifen; higher = more phospholipidosis
[3] = system: Calu-3; test: cell viability relative to DMSO; higher = less toxic; settings: 72 h
[4] = system: HepG2; test: as above; settings: 72 h
[5] = system: Caco-2; test: as above; settings: 72 h
[6] = system: U2OS; test: as above; settings: 72 h
[7] = system: Vero E6; test: as above; settings: 72 h
[8] = system: A549-ACE2 infected with SARS-CoV-2; test: morphology score (similarity to uninfected cells); higher = more like uninfected cells; settings: 24 h
[9] = system: Calu-3; test: relative viability EC50 (midpoint between 100% and the lowest measured viability); higher = less toxic; settings: 72 h
[10] = system: HepG2; test: as above; settings: 72 h
[11] = system: Vero E6; test: as above; settings: 72 h
[12] = system: A549-ACE2 infected with SARS-CoV-2; test: SARS-CoV-2 infection rate relative to DMSO; higher = more infection; settings: 24 h
[13] = system: A549-ACE2; test: phospholipidosis EC50; higher = less potent phospholipidosis inducer
[14] = system: Calu-3; test: drug sensitivity score (DSS) for viability; higher = more toxic; extreme values may be limits of the assay; settings: 72 h
[15] = system: HepG2; test: as above; settings: 72 h
[16] = system: Caco-2; test: as above; settings: 72 h
[17] = system: U2OS; test: as above; settings: 72 h
[18] = system: Vero E6; test: as above; settings: 72 h
[19] = system: Caco-2; test: relative viability EC50 (midpoint between 100% and the lowest measured viability); higher = less toxic; settings: 72 h
[20] = system: U2OS; test: as above; settings: 72 h

CCCCCCCCc1ccc(CCC(N)(CO)CO)cc1 [fingolimod]
cell count ([1]; 0.3 µM): 100% | cell count ([1]; 3 µM): 109% | cell count ([1]; 10 µM): 114% | drug-induced phospholipidosis ([2]; 0.3 µM, 24 h): 9.06% | drug-induced phospholipidosis ([2]; 0.3 µM, 48 h): 8.05% | drug-induced phospholipidosis ([2]; 0.3 µM, 72 h): 4.63% | drug-induced phospholipidosis ([2]; 0.833333 µM, 24 h): 18.8% | drug-induced phospholipidosis ([2]; 0.833333 µM, 48 h): 10.9% | drug-induced phospholipidosis ([2]; 0.833333 µM, 72 h): 6.35% | drug-induced phospholipidosis ([2]; 3.33333 µM, 24 h): 83.3% | drug-induced phospholipidosis ([2]; 3.33333 µM, 48 h): 84.5% | drug-induced phospholipidosis ([2]; 3.33333 µM, 72 h): 49.7% | drug-induced phospholipidosis ([2]; 6.66667 µM, 24 h): 124% | drug-induced phospholipidosis ([2]; 6.66667 µM, 48 h): 114% | drug-induced phospholipidosis ([2]; 6.66667 µM, 72 h): 102% | drug-induced phospholipidosis ([2]; 10 µM, 24 h): 138% | drug-induced phospholipidosis ([2]; 10 µM, 48 h): 135% | drug-induced phospholipidosis ([2]; 10 µM, 72 h): 130% | cell viability ([3]; 1 nM): 101% | cell viability ([3]; 10 nM): 104% | cell viability ([3]; 100 nM): 102% | cell viability ([3]; 1000 nM): 94.9% | cell viability ([3]; 10000 nM): 8.4% | cell viability ([4]; 1 nM): 107% | cell viability ([4]; 10 nM): 105% | cell viability ([4]; 100 nM): 99.5% | cell viability ([4]; 1000 nM): 98% | cell viability ([4]; 10000 nM): 0.4% | cell viability ([5]; 1 nM): 101% | cell viability ([5]; 10 nM): 100% | cell viability ([5]; 100 nM): 87.2% | cell viability ([5]; 1000 nM): 93.8% | cell viability ([5]; 10000 nM): 55.7% | cell viability ([6]; 1 nM): 102% | cell viability ([6]; 10 nM): 105% | cell viability ([6]; 100 nM): 102% | cell viability ([6]; 1000 nM): 105% | cell viability ([6]; 10000 nM): 71.9% | cell viability ([7]; 1 nM): 105% | cell viability ([7]; 10 nM): 95.4% | cell viability ([7]; 100 nM): 105% | cell viability ([7]; 1000 nM): 101% | cell viability ([7]; 10000 nM): 84.7% | morphology score ([8]; 0.3 µM): -0.2 | morphology score ([8]; 3 µM): 0.46 | morphology score ([8]; 10 µM): 0.74 | relative viability EC50 [9]: 2.73 µM | relative viability EC50 [10]: 3.02 µM | relative viability EC50 [11]: > 10 µM | SARS-CoV-2 infection rate ([12]; 0.3 µM): 100% | SARS-CoV-2 infection rate ([12]; 3 µM): 64% | SARS-CoV-2 infection rate ([12]; 10 µM): 12% | phospholipidosis EC50 ([13]; 24 h): 3.36 µM | phospholipidosis EC50 ([13]; 48 h): 3.04 µM | phospholipidosis EC50 ([13]; 72 h): 5.67 µM | drug sensitivity score [14]: 5.8 | drug sensitivity score [15]: 5.8 | drug sensitivity score [16]: 3.3 | drug sensitivity score [17]: 0.9 | drug sensitivity score [18]: 0.2

CCN(CC)CCNC(=O)c1c(C)[nH]c(/C=C2\C(=O)Nc3ccc(F)cc32)c1C [sunitinib]
morphology score ([8]; 0.1 µM): 0.28 | morphology score ([8]; 0.3 µM): 0.35 | morphology score ([8]; 1 µM): 0.53 | morphology score ([8]; 3 µM): 0.51 | phospholipidosis EC50 ([13]; 24 h): 4.75 µM | phospholipidosis EC50 ([13]; 48 h): 4.77 µM | phospholipidosis EC50 ([13]; 72 h): 3.32 µM | drug sensitivity score [14]: 0.1 | drug sensitivity score [15]: 9 | drug sensitivity score [16]: 5.7 | drug sensitivity score [17]: 4 | drug sensitivity score [18]: 4.1

COc1ccc2cc(-c3nc(-c4ccc([S+](C)[O-])cc4)[nH]c3-c3ccncc3)ccc2c1 (centres undefined) [tie2-kinase-inhibitor]
cell count ([1]; 0.3 µM): 101% | cell count ([1]; 3 µM): 114% | cell count ([1]; 10 µM): 122% | cell count ([1]; 30 µM): 112% | drug-induced phospholipidosis ([2]; 0.3 µM, 24 h): 3.67% | drug-induced phospholipidosis ([2]; 0.3 µM, 48 h): 4.58% | drug-induced phospholipidosis ([2]; 0.3 µM, 72 h): 3.91% | drug-induced phospholipidosis ([2]; 0.833333 µM, 24 h): 4.27% | drug-induced phospholipidosis ([2]; 0.833333 µM, 48 h): 3.03% | drug-induced phospholipidosis ([2]; 0.833333 µM, 72 h): -0.14% | drug-induced phospholipidosis ([2]; 3.33333 µM, 24 h): 13.4% | drug-induced phospholipidosis ([2]; 3.33333 µM, 48 h): 14.7% | drug-induced phospholipidosis ([2]; 3.33333 µM, 72 h): 11.2% | drug-induced phospholipidosis ([2]; 6.66667 µM, 24 h): 35.8% | drug-induced phospholipidosis ([2]; 6.66667 µM, 48 h): 33.7% | drug-induced phospholipidosis ([2]; 6.66667 µM, 72 h): 35.7% | drug-induced phospholipidosis ([2]; 10 µM, 24 h): 68% | drug-induced phospholipidosis ([2]; 10 µM, 48 h): 65% | drug-induced phospholipidosis ([2]; 10 µM, 72 h): 69.8% | drug-induced phospholipidosis ([2]; 30 µM, 24 h): 86.8% | drug-induced phospholipidosis ([2]; 30 µM, 48 h): 56.9% | cell viability ([3]; 1 nM): 104% | cell viability ([3]; 10 nM): 103% | cell viability ([3]; 100 nM): 101% | cell viability ([3]; 1000 nM): 98.1% | cell viability ([3]; 10000 nM): 56.7% | cell viability ([4]; 1 nM): 109% | cell viability ([4]; 10 nM): 103% | cell viability ([4]; 100 nM): 98.6% | cell viability ([4]; 1000 nM): 91.7% | cell viability ([4]; 10000 nM): 79.9% | cell viability ([5]; 1 nM): 104% | cell viability ([5]; 10 nM): 102% | cell viability ([5]; 100 nM): 108% | cell viability ([5]; 1000 nM): 89.6% | cell viability ([5]; 10000 nM): 97.4% | cell viability ([6]; 1 nM): 104% | cell viability ([6]; 10 nM): 97.3% | cell viability ([6]; 100 nM): 106% | cell viability ([6]; 1000 nM): 96.5% | cell viability ([6]; 10000 nM): 84.6% | cell viability ([7]; 1 nM): 102% | cell viability ([7]; 10 nM): 102% | cell viability ([7]; 100 nM): 97.1% | cell viability ([7]; 1000 nM): 104% | cell viability ([7]; 10000 nM): 98.9% | morphology score ([8]; 0.3 µM): 0.15 | morphology score ([8]; 3 µM): 0.39 | morphology score ([8]; 10 µM): 0.69 | morphology score ([8]; 30 µM): 0.58 | relative viability EC50 [10]: > 10 µM | relative viability EC50 [19]: > 10 µM | relative viability EC50 [20]: > 10 µM | relative viability EC50 [11]: > 10 µM | SARS-CoV-2 infection rate ([12]; 0.3 µM): 98% | SARS-CoV-2 infection rate ([12]; 3 µM): 87% | SARS-CoV-2 infection rate ([12]; 10 µM): 43% | SARS-CoV-2 infection rate ([12]; 30 µM): 59% | phospholipidosis EC50 ([13]; 24 h): 7.52 µM | phospholipidosis EC50 ([13]; 48 h): 6.68 µM | drug sensitivity score [14]: 2.5 | drug sensitivity score [15]: 1.2 | drug sensitivity score [16]: 0.1 | drug sensitivity score [17]: 0.6 | drug sensitivity score [18]: 0

CN(C)CCCN1c2ccccc2Sc2ccc(C(F)(F)F)cc21 [triflupromazine]
morphology score ([8]; 0.3 µM): 0.09 | morphology score ([8]; 3 µM): 0.65 | morphology score ([8]; 10 µM): 0.84 | morphology score ([8]; 30 µM): 0.41 | phospholipidosis EC50 ([13]; 24 h): 4.26 µM | phospholipidosis EC50 ([13]; 48 h): 11.7 µM | phospholipidosis EC50 ([13]; 72 h): 3.51 µM
